{"source": "ChEMBL document CHEMBL5625170", "about": "“Design, synthesis, and biological evaluation of novel penindolone derivatives as potential inhibitors of hemagglutinin-mediated membrane fusion” (Eur J Med Chem, 2023)"}
{"test": "Cytotoxicity against dog MDCK cells assessed as cell viability measured after 48 hrs by MTT assay", "assay_type": "toxicity, cell-based, Canis lupus familiaris", "details": "not given", "units": {"CC50 at 48 h": "µM"}}
{"smiles": "CC(=O)c1cc(C)c(O)c(Cc2[nH]c3ccc(-c4ccc5c(c4)CCO5)cc3c2Cc2c(O)c(C)cc(C(C)=O)c2O)c1O", "CC50 at 48 h": "> 300"}
{"smiles": "CC(=O)c1cc(C)c(O)c(Cc2c(Cc3c(O)c(C)cc(C(C)=O)c3O)n(Cc3ccc(Cl)cc3)c3ccccc23)c1O", "CC50 at 48 h": "> 300"}
{"smiles": "CC(=O)c1cc(C)c(O)c(Cc2[nH]c3cc(-c4cc(C)cc(C)c4)ccc3c2Cc2c(O)c(C)cc(C(C)=O)c2O)c1O", "CC50 at 48 h": "> 300"}
{"smiles": "CC(=O)c1cc(C)c(O)c(Cc2[nH]c3cc(-c4ccc5ccccc5c4)ccc3c2Cc2c(O)c(C)cc(C(C)=O)c2O)c1O", "CC50 at 48 h": "> 300"}
{"smiles": "COc1ccc2c(Cc3c(O)c(C)cc(C(C)=O)c3O)c(Cc3c(O)c(C)cc(C(C)=O)c3O)[nH]c2c1", "CC50 at 48 h": "> 300"}
{"smiles": "CC(=O)c1cc(C)c(O)c(Cc2[nH]c3ccc(C)cc3c2Cc2c(O)c(C)cc(C(C)=O)c2O)c1O", "CC50 at 48 h": "> 300"}
{"smiles": "CC(=O)c1cc(C)c(O)c(Cc2[nH]c3ccc(-c4ccsc4)cc3c2Cc2c(O)c(C)cc(C(C)=O)c2O)c1O", "CC50 at 48 h": "> 300"}
{"smiles": "COc1ccc2cc(-c3ccc4[nH]c(Cc5c(O)c(C)cc(C(C)=O)c5O)c(Cc5c(O)c(C)cc(C(C)=O)c5O)c4c3)ccc2c1", "CC50 at 48 h": "> 300"}
{"smiles": "CC(=O)c1cc(C)c(O)c(Cc2[nH]c3ccc(Br)cc3c2Cc2c(O)c(C)cc(C(C)=O)c2O)c1O", "CC50 at 48 h": 233}
{"smiles": "CC(=O)c1cc(C)c(O)c(Cc2[nH]c3cc(-c4cccc(F)c4)ccc3c2Cc2c(O)c(C)cc(C(C)=O)c2O)c1O", "CC50 at 48 h": "> 300"}
{"smiles": "CC(=O)c1cc(C)c(O)c(Cc2[nH]c3cc(-c4c5ccccc5c(-c5ccccc5)c5ccccc45)ccc3c2Cc2c(O)c(C)cc(C(C)=O)c2O)c1O", "CC50 at 48 h": "> 300"}
{"smiles": "CC(=O)c1cc(C)c(O)c(Cc2[nH]c3ccc(-c4ccc(F)cc4)cc3c2Cc2c(O)c(C)cc(C(C)=O)c2O)c1O", "CC50 at 48 h": 212}
{"smiles": "CC(=O)c1cc(C)c(O)c(Cc2c(Cc3c(O)c(C)cc(C(C)=O)c3O)n(Cc3ccccc3)c3ccccc23)c1O", "CC50 at 48 h": "> 300"}
{"smiles": "CC(=O)c1cc(C)c(O)c(Cc2[nH]c3cc(-c4cc(C(F)(F)F)cc(C(F)(F)F)c4)ccc3c2Cc2c(O)c(C)cc(C(C)=O)c2O)c1O", "CC50 at 48 h": "> 300"}
{"smiles": "CC(=O)c1cc(C)c(O)c(Cc2c(Cc3c(O)c(C)cc(C(C)=O)c3O)n(Cc3ccc(F)cc3)c3ccccc23)c1O", "CC50 at 48 h": "> 300"}
{"smiles": "CC(=O)c1cc(C)c(O)c(Cc2[nH]c3cc(-c4ccc(Cl)cc4)ccc3c2Cc2c(O)c(C)cc(C(C)=O)c2O)c1O", "CC50 at 48 h": "> 300"}
{"smiles": "CC(=O)c1cc(C)c(O)c(Cc2[nH]c3ccc(-c4cccc(O)c4)cc3c2Cc2c(O)c(C)cc(C(C)=O)c2O)c1O", "CC50 at 48 h": 152}
{"smiles": "CC(=O)c1cc(C)c(O)c(Cc2[nH]c3ccc(-c4ccc5c(c4)OCCO5)cc3c2Cc2c(O)c(C)cc(C(C)=O)c2O)c1O", "CC50 at 48 h": "> 300"}
{"smiles": "CC(=O)c1cc(C)c(O)c(Cc2[nH]c3ccc(F)cc3c2Cc2c(O)c(C)cc(C(C)=O)c2O)c1O", "CC50 at 48 h": 281}
{"smiles": "COc1ccc(Cn2c(Cc3c(O)c(C)cc(C(C)=O)c3O)c(Cc3c(O)c(C)cc(C(C)=O)c3O)c3ccccc32)cc1", "CC50 at 48 h": "> 300"}
{"smiles": "CC(=O)c1cc(C)c(O)c(Cc2[nH]c3ccc(-c4ccc5ccccc5c4)cc3c2Cc2c(O)c(C)cc(C(C)=O)c2O)c1O", "CC50 at 48 h": "> 300"}
{"smiles": "CC(=O)c1cc(C)c(O)c(Cc2[nH]c3ccc(-c4ccccc4F)cc3c2Cc2c(O)c(C)cc(C(C)=O)c2O)c1O", "CC50 at 48 h": "> 300"}
{"smiles": "COc1cc(-c2ccc3[nH]c(Cc4c(O)c(C)cc(C(C)=O)c4O)c(Cc4c(O)c(C)cc(C(C)=O)c4O)c3c2)cc(OC)c1OC", "CC50 at 48 h": "> 300"}
{"smiles": "CC(=O)c1cc(C)c(O)c(Cc2[nH]c3cc(-c4cc(C(C)(C)C)cc(C(C)(C)C)c4)ccc3c2Cc2c(O)c(C)cc(C(C)=O)c2O)c1O", "CC50 at 48 h": 280}
{"smiles": "CSc1ccc(-c2ccc3[nH]c(Cc4c(O)c(C)cc(C(C)=O)c4O)c(Cc4c(O)c(C)cc(C(C)=O)c4O)c3c2)cc1", "CC50 at 48 h": "> 300"}
{"smiles": "CC(=O)c1cc(C)c(O)c(Cc2[nH]c3cc(-c4ccc5c(c4)CCO5)ccc3c2Cc2c(O)c(C)cc(C(C)=O)c2O)c1O", "CC50 at 48 h": "> 300"}
{"smiles": "CC(=O)c1cc(C)c(O)c(Cc2[nH]c3ccc(-c4cc(C)cc(C)c4)cc3c2Cc2c(O)c(C)cc(C(C)=O)c2O)c1O", "CC50 at 48 h": "> 300"}
{"smiles": "COc1ccc2cc(-c3ccc4c(Cc5c(O)c(C)cc(C(C)=O)c5O)c(Cc5c(O)c(C)cc(C(C)=O)c5O)[nH]c4c3)ccc2c1", "CC50 at 48 h": "> 300"}
{"smiles": "COc1cccc(OC)c1-c1ccc2c(Cc3c(O)c(C)cc(C(C)=O)c3O)c(Cc3c(O)c(C)cc(C(C)=O)c3O)[nH]c2c1", "CC50 at 48 h": "> 300"}
{"smiles": "CC(=O)c1cc(C)c(O)c(Cc2[nH]c3cc(-c4ccsc4)ccc3c2Cc2c(O)c(C)cc(C(C)=O)c2O)c1O", "CC50 at 48 h": "> 300"}
{"smiles": "CC(=O)c1cc(C)c(O)c(Cc2[nH]c3cc(-c4ccccc4)ccc3c2Cc2c(O)c(C)cc(C(C)=O)c2O)c1O", "CC50 at 48 h": "> 300"}
{"smiles": "C=CCn1c(Cc2c(O)c(C)cc(C(C)=O)c2O)c(Cc2c(O)c(C)cc(C(C)=O)c2O)c2ccccc21", "CC50 at 48 h": "> 300"}
{"smiles": "CC(=O)c1cc(C)c(O)c(Cc2c(Cc3c(O)c(C)cc(C(C)=O)c3O)n(N)c3ccccc23)c1O", "CC50 at 48 h": "> 300"}
{"smiles": "COc1ccc2[nH]c(Cc3c(O)c(C)cc(C(C)=O)c3O)c(Cc3c(O)c(C)cc(C(C)=O)c3O)c2c1", "CC50 at 48 h": "> 300"}
{"smiles": "CC(=O)c1cc(C)c(O)c(Cc2[nH]c3ccc(-c4ccccc4)cc3c2Cc2c(O)c(C)cc(C(C)=O)c2O)c1O", "CC50 at 48 h": "> 300"}
{"smiles": "CC(=O)c1cc(C)c(O)c(Cc2[nH]c3cc(-c4ccc(F)cc4)ccc3c2Cc2c(O)c(C)cc(C(C)=O)c2O)c1O", "CC50 at 48 h": 256}
{"smiles": "CC(=O)c1cc(C)c(O)c(Cc2[nH]c3cc(-c4ccc5cccnc5c4)ccc3c2Cc2c(O)c(C)cc(C(C)=O)c2O)c1O", "CC50 at 48 h": "> 300"}
{"smiles": "CC(=O)c1cc(C)c(O)c(Cc2[nH]c3cc(-c4cccc(O)c4)ccc3c2Cc2c(O)c(C)cc(C(C)=O)c2O)c1O", "CC50 at 48 h": 126}
{"smiles": "CC(=O)c1cc(C)c(O)c(Cc2[nH]c3ccc(-c4c5ccccc5c(-c5ccccc5)c5ccccc45)cc3c2Cc2c(O)c(C)cc(C(C)=O)c2O)c1O", "CC50 at 48 h": "> 300"}
{"smiles": "CC(=O)c1cc(C)c(O)c(Cc2[nH]c3cc(/C=C/c4ccccc4)ccc3c2Cc2c(O)c(C)cc(C(C)=O)c2O)c1O", "CC50 at 48 h": "> 300"}
{"smiles": "CC(=O)c1cc(C)c(O)c(Cc2[nH]c3cc(-c4ccccc4F)ccc3c2Cc2c(O)c(C)cc(C(C)=O)c2O)c1O", "CC50 at 48 h": "> 300"}
{"smiles": "CC(=O)c1cc(C)c(O)c(Cc2[nH]c3ccc(Cl)cc3c2Cc2c(O)c(C)cc(C(C)=O)c2O)c1O", "CC50 at 48 h": "> 300"}
{"smiles": "CC(=O)c1cc(C)c(O)c(Cc2[nH]c3ccc(/C=C/c4ccccc4)cc3c2Cc2c(O)c(C)cc(C(C)=O)c2O)c1O", "CC50 at 48 h": "> 300"}
{"smiles": "CC(=O)c1cc(C)c(O)c(Cc2[nH]c3ccc(-c4cc(C(C)(C)C)cc(C(C)(C)C)c4)cc3c2Cc2c(O)c(C)cc(C(C)=O)c2O)c1O", "CC50 at 48 h": "> 300"}
{"smiles": "CC(=O)c1cc(C)c(O)c(Cc2[nH]c3ccc(-c4cccc(F)c4)cc3c2Cc2c(O)c(C)cc(C(C)=O)c2O)c1O", "CC50 at 48 h": "> 300"}
{"smiles": "CC(=O)c1cc(C)c(O)c(Cc2[nH]c3ccc(-c4cc(C(F)(F)F)cc(C(F)(F)F)c4)cc3c2Cc2c(O)c(C)cc(C(C)=O)c2O)c1O", "CC50 at 48 h": "> 300"}
{"test": "Selectivity index, ratio of CC50 for cytotoxicity against dog MDCK cells to IC50 for anti-viral activity against Influenza A virus (A/Puerto Rico/8/34 infected in MDCK cells", "assay_type": "toxicity, cell-based", "details": "read-out: Selectivity Index"}
{"smiles": "CC(=O)c1cc(C)c(O)c(Cc2[nH]c3cc(-c4cc(C)cc(C)c4)ccc3c2Cc2c(O)c(C)cc(C(C)=O)c2O)c1O", "selectivity ratio": "> 29.7"}
{"smiles": "CC(=O)c1cc(C)c(O)c(Cc2[nH]c3cc(-c4ccc5ccccc5c4)ccc3c2Cc2c(O)c(C)cc(C(C)=O)c2O)c1O", "selectivity ratio": "> 11.5"}
{"smiles": "COc1ccc2c(Cc3c(O)c(C)cc(C(C)=O)c3O)c(Cc3c(O)c(C)cc(C(C)=O)c3O)[nH]c2c1", "selectivity ratio": "> 23.8"}
{"smiles": "CC(=O)c1cc(C)c(O)c(Cc2[nH]c3ccc(C)cc3c2Cc2c(O)c(C)cc(C(C)=O)c2O)c1O", "selectivity ratio": "> 14.6"}
{"smiles": "COc1ccc2cc(-c3ccc4[nH]c(Cc5c(O)c(C)cc(C(C)=O)c5O)c(Cc5c(O)c(C)cc(C(C)=O)c5O)c4c3)ccc2c1", "selectivity ratio": "> 14.2"}
{"smiles": "CC(=O)c1cc(C)c(O)c(Cc2[nH]c3ccc(Br)cc3c2Cc2c(O)c(C)cc(C(C)=O)c2O)c1O", "selectivity ratio": 9.2}
{"smiles": "CC(=O)c1cc(C)c(O)c(Cc2[nH]c3ccc(-c4ccc5c(c4)OCCO5)cc3c2Cc2c(O)c(C)cc(C(C)=O)c2O)c1O", "selectivity ratio": "> 23.1"}
{"smiles": "CC(=O)c1cc(C)c(O)c(Cc2[nH]c3ccc(-c4ccc5ccccc5c4)cc3c2Cc2c(O)c(C)cc(C(C)=O)c2O)c1O", "selectivity ratio": "> 14.5"}
{"smiles": "COc1cc(-c2ccc3[nH]c(Cc4c(O)c(C)cc(C(C)=O)c4O)c(Cc4c(O)c(C)cc(C(C)=O)c4O)c3c2)cc(OC)c1OC", "selectivity ratio": "> 37.5"}
{"smiles": "CC(=O)c1cc(C)c(O)c(Cc2[nH]c3cc(-c4cc(C(C)(C)C)cc(C(C)(C)C)c4)ccc3c2Cc2c(O)c(C)cc(C(C)=O)c2O)c1O", "selectivity ratio": 10.4}
{"smiles": "CSc1ccc(-c2ccc3[nH]c(Cc4c(O)c(C)cc(C(C)=O)c4O)c(Cc4c(O)c(C)cc(C(C)=O)c4O)c3c2)cc1", "selectivity ratio": "> 17.1"}
{"smiles": "CC(=O)c1cc(C)c(O)c(Cc2[nH]c3ccc(-c4cc(C)cc(C)c4)cc3c2Cc2c(O)c(C)cc(C(C)=O)c2O)c1O", "selectivity ratio": "> 22.2"}
{"smiles": "COc1ccc2cc(-c3ccc4c(Cc5c(O)c(C)cc(C(C)=O)c5O)c(Cc5c(O)c(C)cc(C(C)=O)c5O)[nH]c4c3)ccc2c1", "selectivity ratio": "> 12.9"}
{"smiles": "COc1cccc(OC)c1-c1ccc2c(Cc3c(O)c(C)cc(C(C)=O)c3O)c(Cc3c(O)c(C)cc(C(C)=O)c3O)[nH]c2c1", "selectivity ratio": "> 15.4"}
{"smiles": "CC(=O)c1cc(C)c(O)c(Cc2[nH]c3cc(-c4ccccc4)ccc3c2Cc2c(O)c(C)cc(C(C)=O)c2O)c1O", "selectivity ratio": "> 12.8"}
{"smiles": "COc1ccc2[nH]c(Cc3c(O)c(C)cc(C(C)=O)c3O)c(Cc3c(O)c(C)cc(C(C)=O)c3O)c2c1", "selectivity ratio": "> 18.9"}
{"smiles": "CC(=O)c1cc(C)c(O)c(Cc2[nH]c3ccc(-c4ccccc4)cc3c2Cc2c(O)c(C)cc(C(C)=O)c2O)c1O", "selectivity ratio": "> 11.5"}
{"smiles": "CC(=O)c1cc(C)c(O)c(Cc2[nH]c3cc(-c4ccc(F)cc4)ccc3c2Cc2c(O)c(C)cc(C(C)=O)c2O)c1O", "selectivity ratio": 13.4}
